Reference: patent publication US10253007B2, “Taxanes compounds, preparation method therefor, and uses thereof” (Jiangsu Tasly Diyi Pharmaceutical Co., Ltd., priority 2013, dated 2019)

Legend:
[1] = MTT assay, proliferation inhibition; type: cell-based; conditions: Homo sapiens, LN-18 gastric cancer, read-out: Proliferation inhibition rate
Description: (§1) 1. Cytotoxicity Assay Using Human Tumor Cell Lines
(§2) Paclitaxel was used as the positive drug.

A2780 ovarian cancer = assay: MTT assay, proliferation inhibition; type: cell-based; conditions: Homo sapiens, read-out: Proliferation inhibition rate
Description: as §1, §2

A375 melanoma = assay: MTT assay, proliferation inhibition; type: cell-based; conditions: Homo sapiens, A-375, read-out: Proliferation inhibition rate
Description: as §1, §2

[2] = tested on: A549 non-small cell lung cancer; assay: MTT assay, proliferation inhibition; type: cell-based; conditions: Homo sapiens, read-out: Proliferation inhibition rate
Description: as §1, §2

B16 melanoma = assay: MTT assay, proliferation inhibition; type: cell-based; conditions: read-out: Proliferation inhibition rate
Description: as §1, §2

BGC-823 gastric cancer = assay: MTT assay, proliferation inhibition; type: cell-based; conditions: Homo sapiens, read-out: Proliferation inhibition rate
Description: as §1, §2

DU145 prostate cancer = assay: MTT assay, proliferation inhibition; type: cell-based; conditions: Homo sapiens, DU-145, read-out: Proliferation inhibition rate
Description: as §1, §2

HCT 116 colon cancer = assay: MTT assay, proliferation inhibition; type: cell-based; conditions: Homo sapiens, read-out: Proliferation inhibition rate
Description: as §1, §2

HL60 leukemia = assay: MTT assay, proliferation inhibition; type: cell-based; conditions: Homo sapiens, HL-60, read-out: Proliferation inhibition rate
Description: as §1, §2

HT29 colon cancer = assay: MTT assay, proliferation inhibition; type: cell-based; conditions: Homo sapiens, HT-29, read-out: Proliferation inhibition rate
Description: as §1, §2

HeLa cervical cancer = assay: MTT assay, proliferation inhibition; type: cell-based; conditions: Homo sapiens, read-out: Proliferation inhibition rate
Description: as §1, §2

K562 leukemia = assay: MTT assay, proliferation inhibition; type: cell-based; conditions: Homo sapiens, read-out: Proliferation inhibition rate
Description: as §1, §2

LNCaP prostate cancer = assay: MTT assay, proliferation inhibition; type: cell-based; conditions: Homo sapiens, read-out: Proliferation inhibition rate
Description: as §1, §2

MCF-7 breast cancer = assay: MTT assay, proliferation inhibition; type: cell-based; conditions: Homo sapiens, MCF7, read-out: Proliferation inhibition rate
Description: as §1, §2

MDA-MB-436 breast cancer = assay: MTT assay, proliferation inhibition; type: cell-based; conditions: Homo sapiens, read-out: Proliferation inhibition rate
Description: as §1, §2

[3] = tested on: NCI-H460 non-small cell lung cancer; assay: MTT assay, proliferation inhibition; type: cell-based; conditions: Homo sapiens, read-out: Proliferation inhibition rate
Description: as §1, §2

[4] = Caco-2 cell monolayer membrane transport assay; conditions: human, A-B; for Papp A→B: Caco-2, Papp A-B; for recovery: Caco-2, Recovery rate in mass
Description: Caco-2 Cell Monolayer Membrane Transport Assay
Human-derived colorectal adenocarcinoma cell line Caco-2 cell monolayer model was used to study the bidirectional transport of the target compounds from the apical (AP) side to the basolateral (BL) side and from BL side to AP side. HPLC was used for quantitative analysis to calculate transport parameters, apparent permeability coefficient (Papp) and the efflux ratio.

[5] = tested on: breast cancer cell line MCF-7; assay: IC50 values on breast cancer cell line MCF-7; type: cell-based; conditions: Homo sapiens, MCF7; MCF-7; exposure 72 hours; mean±SD of three independent experiments; read-out: MCF-7(IC50)
Description: From the activity evaluation data of the above-mentioned preliminary screen, it can be seen that the series of taxanes derivatives synthesized in the present invention have activity (although the activity of PCMI-43 is weakened). Afterward, most of the compounds are picked up from these derivatives to examine their IC50 values on breast cancer cell line MCF-7. Paclitaxel is used as the positive control drug. Experiments for each compound were independently repeated for three times and multiple holes were used in each experiment. The exposure time of drugs was 72 hours.

[6] = Mean, Caco-2, mean of two samples

Structure (SMILES) | inhibition at 1 µM [1] [%] | inhibition at 1 µM (A2780 ovarian cancer) [%] | inhibition at 1 µM (A375 melanoma) [%] | inhibition at 1 µM [2] [%] | inhibition at 1 µM (B16 melanoma) [%] | inhibition at 1 µM (BGC-823 gastric cancer) [%] | inhibition at 1 µM (DU145 prostate cancer) [%] | inhibition at 1 µM (HCT 116 colon cancer) [%] | inhibition at 1 µM (HL60 leukemia) [%] | inhibition at 1 µM (HT29 colon cancer) [%] | inhibition at 1 µM (HeLa cervical cancer) [%] | inhibition at 1 µM (K562 leukemia) [%] | inhibition at 1 µM (LNCaP prostate cancer) [%] | inhibition at 1 µM (MCF-7 breast cancer) [%] | inhibition at 1 µM (MDA-MB-436 breast cancer) [%] | inhibition at 1 µM [3] [%] | Papp A→B ([4]; Sample-01, Caco-2, Sample-01) [×10⁻⁶ cm/s] | Papp A→B ([4]; Sample-02, Caco-2, Sample-02) [×10⁻⁶ cm/s] | recovery [4, 6] [%] | recovery ([4]; Sample-01, Caco-2, Sample-01) [%] | further results
COC(=O)O[C@H]1C[C@H]2OC[C@@]2(OC(C)=O)[C@H]2[C@H](OC(=O)c3ccccc3)[C@]3(O)C[C@H](OC(=O)[C@H](O)[C@@H](NC(=O)OC(C)(C)C)c4ccccn4)C(C)=C([C@@H](OC)C(=O)[C@]12C)C3(C)C [PCMI-38] | 96.6 | 96.5 | 88.3 | 80.3 | 83.3 | 95.7 | 89.2 | 64 | 97.4 | 89.8 | 102 | 94.7 | 82.4 | 106 | 85.9 | 88.7 | 4.71 | 4.35 | 121 | 122 | recovery ([4]; Sample-02, Caco-2, Sample-02): 120%
CO[C@H]1C(=O)[C@]2(C)[C@@H](OC(=O)N(C)C)C[C@H]3OC[C@@]3(OC(C)=O)[C@H]2[C@H](OC(=O)c2ccccc2)[C@]2(O)C[C@H](OC(=O)[C@H](O)[C@@H](NC(=O)N(C)C)c3ccccc3)C(C)=C1C2(C)C [PCMI-35] | 93.5 | 94.2 | 95.3 | 76.2 | 80.3 | 95.8 | 89.8 | 65.5 | 97.5 | 87.3 | 99.9 | 92.7 | 85.3 | 92.5 | 80.2 | 86.9 | 3.21 | 2.87 | 91.3 | 95 | IC50 [5]: 4.28 ± 0.08 nM; Papp A→B [4, 6]: 3.04 ×10⁻⁶ cm/s; recovery ([4]; Sample-02, Caco-2, Sample-02): 87.6%
CO[C@H]1C[C@H]2OC[C@@]2(OC(C)=O)[C@H]2[C@H](OC(=O)c3ccccc3)[C@]3(O)C[C@H](OC(=O)[C@H](O)[C@@H](NC(=O)c4ccccc4)c4ccccc4)C(C)=C([C@@H](OC(=O)N(C)C)C(=O)[C@]12C)C3(C)C [PCMI-23] | 96.3 | 94.8 | 87.7 | 77.8 | 80.8 | 94.5 | 84.8 | 78.3 | 97.2 | 87.9 | 99.8 | 93.8 | 81.8 | 93.5 | 84.8 | 83.3 | 3.21 | 2.68 | 87.1 | 100 | recovery ([4]; Sample-02, Caco-2, Sample-02): 74%
CO[C@H]1C(=O)[C@]2(C)CC[C@H]3OC[C@@]3(OC(C)=O)[C@H]2[C@H](OC(=O)c2ccccc2)[C@]2(O)C[C@H](OC(=O)[C@H](O)[C@@H](NC(=O)OC(C)(C)C)c3ccccc3)C(C)=C1C2(C)C [PCMI-41] | 94.6 | 95.8 | 91.6 | 77 | 81.1 | 93.1 | 87.6 | 65 | 97.7 | 88.3 | 101 | 94.3 | 82.5 | 95.5 | 80.1 | 85.7 | 4.27 | 5.79 | 101 | 97 | IC50 [5]: 3.33 ± 0.11 nM; Papp A→B [4, 6]: 5.03 ×10⁻⁶ cm/s; recovery ([4]; Sample-02, Caco-2, Sample-02): 105%
